The text below walks through data of ChEMBL document CHEMBL1201862, “PubChem BioAssay data set” (2004).

Activity calls are given as the source filed them.

Assay [1] can be described thus: cells. The format is functional.
Assay [2] can be described thus: HepG2 cell cytotoxicity, dose response, cytotoxicity control for non-replicating M. tuberculosis project (AID 489018). The note with it: Mycobacterium tuberculosis. The format is functional.
Assay [3] concerns the target Exodeoxyribonuclease V (Escherichia coli (strain K12), UniProt P04993+P07648+P08394). As to the kind of experiment: E. coli RecBCD inhibitors, dose response, counter-screen for AddAB inhibitor project, absorbance, V66 E. coli, mutant T4 phage (AID 492957). The format is functional, cell-based, Escherichia coli str. K-12 substr. MG1655. In general terms: A counterscreen serves to expose hits that act by an unwanted route or on another target.

A short description of assay [4]: THP-1 cell cytotoxicity, dose response, cytotoxicity control for non-replicating M. tuberculosis project (AID 489025). It counts as functional.
A short description of assay [5]: Luminescence Cell-Based Dose Retest to Confirm Inhibitors of Cancer Stem Cells. [Related pubchem assays (depositor defined):AID2717, AID2721]. The format is functional. The note with it: Homo sapiens.
Assay [6] has as its target Heat shock protein HSP 90-alpha (Homo sapiens, UniProt P07900). It counts as functional, organism-based.
The nature of assay [7]: Counterscreen for AddAB inhibitors: absorbance-based bacterial cell-based high throughput dose response assay for inhibitors of bacterial viability. [Related pubchem assays (depositor defined):AID435030, AID449728, AID449731, AID488942, AID488955, AID488956]. It counts as functional.
Assay [8] in a line: Vero E6 cell cytotoxicity, dose response, cytotoxicity control for non-replicating M. tuberculosis project, secondary assay (AID 492998). It counts as functional, VeroE6. The note with it: Vero C1008.
The target of assay [9] is T1, Tyrosine-protein phosphatase non-receptor type 7 (Homo sapiens, UniProt P35236).
T1 sequence (P35236 whole entry): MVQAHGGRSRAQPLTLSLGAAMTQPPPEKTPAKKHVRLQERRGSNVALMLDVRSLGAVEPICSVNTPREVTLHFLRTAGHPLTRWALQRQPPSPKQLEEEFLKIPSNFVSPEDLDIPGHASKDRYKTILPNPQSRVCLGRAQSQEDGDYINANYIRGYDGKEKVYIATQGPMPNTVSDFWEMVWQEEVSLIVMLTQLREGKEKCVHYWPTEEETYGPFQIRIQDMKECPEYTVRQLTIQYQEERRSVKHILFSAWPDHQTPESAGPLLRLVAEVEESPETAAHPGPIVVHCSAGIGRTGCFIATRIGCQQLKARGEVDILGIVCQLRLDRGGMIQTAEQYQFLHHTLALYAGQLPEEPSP
Put plainly: HePTP (PTPN7) phosphatase inhibitor potency, SAR follow-up, biochemical, set 2 (AID 449736). The format is functional.

Assay [10] deals with T2, Hexokinase HKDC1 (Homo sapiens, UniProt Q2TB90).
T2 sequence (Q2TB90 whole entry): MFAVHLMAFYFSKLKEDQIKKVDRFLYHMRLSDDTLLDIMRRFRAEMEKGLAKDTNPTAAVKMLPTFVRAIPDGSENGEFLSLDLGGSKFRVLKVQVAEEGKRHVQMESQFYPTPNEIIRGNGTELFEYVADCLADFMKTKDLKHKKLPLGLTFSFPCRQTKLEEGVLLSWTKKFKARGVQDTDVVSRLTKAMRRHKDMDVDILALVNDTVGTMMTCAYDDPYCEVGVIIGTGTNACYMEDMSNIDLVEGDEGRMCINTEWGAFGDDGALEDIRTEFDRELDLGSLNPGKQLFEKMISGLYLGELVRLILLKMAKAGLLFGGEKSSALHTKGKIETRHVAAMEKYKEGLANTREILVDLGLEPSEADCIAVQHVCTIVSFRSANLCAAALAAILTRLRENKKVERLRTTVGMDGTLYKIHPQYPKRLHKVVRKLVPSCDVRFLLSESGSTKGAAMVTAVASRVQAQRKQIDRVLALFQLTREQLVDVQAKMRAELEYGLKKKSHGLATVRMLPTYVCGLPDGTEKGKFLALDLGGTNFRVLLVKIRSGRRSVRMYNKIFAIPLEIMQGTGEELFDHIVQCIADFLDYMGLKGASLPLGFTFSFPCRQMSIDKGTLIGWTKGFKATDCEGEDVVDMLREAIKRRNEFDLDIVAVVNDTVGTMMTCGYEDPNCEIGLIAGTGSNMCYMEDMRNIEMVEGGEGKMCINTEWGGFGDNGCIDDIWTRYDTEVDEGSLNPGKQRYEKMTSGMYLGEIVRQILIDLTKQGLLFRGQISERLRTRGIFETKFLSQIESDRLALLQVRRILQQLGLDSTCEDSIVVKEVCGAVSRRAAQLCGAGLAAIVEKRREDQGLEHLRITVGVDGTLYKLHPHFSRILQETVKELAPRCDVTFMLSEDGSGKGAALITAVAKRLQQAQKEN
Put plainly: HKDC1 hexokinase activators, dose response, biochemical, W721R variant (AID 504730). It counts as functional.

The nature of assay [11]: HeLa cell cytotoxicity, dose response, cytotoxicity control for MgcRacGAP inhibitor project (AID 624300). The format is functional.
The target in assay [12] is T3, DNA repair protein RAD52 homolog (Homo sapiens, UniProt P43351).
T3 sequence (P43351 whole entry): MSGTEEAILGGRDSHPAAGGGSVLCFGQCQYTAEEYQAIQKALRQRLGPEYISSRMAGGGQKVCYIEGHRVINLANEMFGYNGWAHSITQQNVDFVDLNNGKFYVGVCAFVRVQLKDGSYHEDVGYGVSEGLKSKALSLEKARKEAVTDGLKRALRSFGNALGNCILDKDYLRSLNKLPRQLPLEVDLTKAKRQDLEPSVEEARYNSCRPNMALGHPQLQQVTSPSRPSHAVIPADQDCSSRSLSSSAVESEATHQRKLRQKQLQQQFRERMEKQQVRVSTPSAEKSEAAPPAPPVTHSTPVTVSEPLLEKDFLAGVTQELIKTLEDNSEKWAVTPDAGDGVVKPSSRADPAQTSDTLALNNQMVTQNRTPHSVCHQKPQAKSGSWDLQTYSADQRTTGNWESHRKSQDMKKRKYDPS
It counts as functional, biochemical.

Assay [13] is described as follows: CFTR ΔF508 corrector activity in bronchial cells, dose response, human bronchial epithelial cells, plate reader, cherry-pick, two tests (AID 743267). The format is functional, cell-based.
For assay [14], the target named is T4, Rac GTPase-activating protein 1 (Homo sapiens, UniProt Q9H0H5).
T4 sequence (Q9H0H5 whole entry): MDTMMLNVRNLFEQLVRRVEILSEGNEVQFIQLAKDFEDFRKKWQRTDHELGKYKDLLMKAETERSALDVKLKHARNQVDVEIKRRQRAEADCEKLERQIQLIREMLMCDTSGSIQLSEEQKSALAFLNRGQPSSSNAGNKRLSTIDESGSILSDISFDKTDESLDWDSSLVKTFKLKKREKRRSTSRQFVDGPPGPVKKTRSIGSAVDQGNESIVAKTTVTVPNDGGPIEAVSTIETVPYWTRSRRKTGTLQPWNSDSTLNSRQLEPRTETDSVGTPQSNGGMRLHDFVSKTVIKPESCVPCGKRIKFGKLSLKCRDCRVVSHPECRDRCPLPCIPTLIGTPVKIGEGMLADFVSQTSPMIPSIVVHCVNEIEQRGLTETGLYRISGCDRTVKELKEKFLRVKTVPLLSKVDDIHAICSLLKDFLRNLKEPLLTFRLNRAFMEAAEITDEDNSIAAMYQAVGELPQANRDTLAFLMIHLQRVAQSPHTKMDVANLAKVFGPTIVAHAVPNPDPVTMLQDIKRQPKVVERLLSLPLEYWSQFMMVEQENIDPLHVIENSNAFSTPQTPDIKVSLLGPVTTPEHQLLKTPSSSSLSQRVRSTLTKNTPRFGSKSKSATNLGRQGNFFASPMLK
As to the kind of experiment: MgcRacGAP GTPase-activating activity inhibitors, confirmation, biochemical, ADP Hunter fluorescence, primary and confirmatory (AID 624330). The format is functional.

Sequence of Exodeoxyribonuclease V (P04993 whole entry): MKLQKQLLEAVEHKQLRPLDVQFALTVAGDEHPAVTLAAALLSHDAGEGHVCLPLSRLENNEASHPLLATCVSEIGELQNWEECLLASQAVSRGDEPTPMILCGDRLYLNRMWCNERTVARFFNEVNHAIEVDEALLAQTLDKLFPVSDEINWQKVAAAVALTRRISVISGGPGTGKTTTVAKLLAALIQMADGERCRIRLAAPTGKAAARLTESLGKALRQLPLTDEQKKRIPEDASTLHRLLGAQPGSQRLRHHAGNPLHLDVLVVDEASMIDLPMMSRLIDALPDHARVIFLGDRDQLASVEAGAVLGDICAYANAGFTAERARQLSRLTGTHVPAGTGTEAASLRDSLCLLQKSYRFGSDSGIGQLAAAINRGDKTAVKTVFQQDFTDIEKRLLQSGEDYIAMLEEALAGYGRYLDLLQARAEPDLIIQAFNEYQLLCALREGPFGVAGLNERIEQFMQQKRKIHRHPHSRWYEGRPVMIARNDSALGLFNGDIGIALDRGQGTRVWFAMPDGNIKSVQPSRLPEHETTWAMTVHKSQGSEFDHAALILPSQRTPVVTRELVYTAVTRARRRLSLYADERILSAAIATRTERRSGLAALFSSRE
Sequence of Exodeoxyribonuclease V (P07648 whole entry): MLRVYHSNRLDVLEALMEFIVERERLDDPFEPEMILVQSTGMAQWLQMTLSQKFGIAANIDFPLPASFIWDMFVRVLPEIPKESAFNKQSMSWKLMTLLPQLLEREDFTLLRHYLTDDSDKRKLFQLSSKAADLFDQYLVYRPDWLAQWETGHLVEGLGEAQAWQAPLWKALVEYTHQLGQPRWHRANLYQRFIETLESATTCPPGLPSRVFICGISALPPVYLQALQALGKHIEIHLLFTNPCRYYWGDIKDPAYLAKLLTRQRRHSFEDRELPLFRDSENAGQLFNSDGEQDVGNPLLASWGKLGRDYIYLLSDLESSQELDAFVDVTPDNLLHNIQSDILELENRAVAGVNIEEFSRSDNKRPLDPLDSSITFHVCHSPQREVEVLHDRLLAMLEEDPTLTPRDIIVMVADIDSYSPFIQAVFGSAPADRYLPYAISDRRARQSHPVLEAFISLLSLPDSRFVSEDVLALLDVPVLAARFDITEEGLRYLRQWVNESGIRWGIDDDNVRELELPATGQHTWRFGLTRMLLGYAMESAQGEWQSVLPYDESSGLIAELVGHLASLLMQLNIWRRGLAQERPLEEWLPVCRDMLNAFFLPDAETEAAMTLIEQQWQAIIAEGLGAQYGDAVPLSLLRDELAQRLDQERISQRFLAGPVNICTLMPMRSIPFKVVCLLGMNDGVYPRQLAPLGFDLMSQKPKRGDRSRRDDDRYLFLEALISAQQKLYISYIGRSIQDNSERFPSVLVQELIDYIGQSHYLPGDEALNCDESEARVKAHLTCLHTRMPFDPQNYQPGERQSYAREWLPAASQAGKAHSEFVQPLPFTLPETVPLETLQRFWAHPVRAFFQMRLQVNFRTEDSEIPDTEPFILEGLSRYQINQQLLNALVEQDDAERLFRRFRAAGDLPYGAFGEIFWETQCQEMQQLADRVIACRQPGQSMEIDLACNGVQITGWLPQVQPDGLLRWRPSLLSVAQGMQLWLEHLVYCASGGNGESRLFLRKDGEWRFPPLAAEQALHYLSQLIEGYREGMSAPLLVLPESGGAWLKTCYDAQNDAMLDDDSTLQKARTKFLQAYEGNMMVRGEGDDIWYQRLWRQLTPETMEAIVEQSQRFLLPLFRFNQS
Sequence of Exodeoxyribonuclease V (P08394 whole entry): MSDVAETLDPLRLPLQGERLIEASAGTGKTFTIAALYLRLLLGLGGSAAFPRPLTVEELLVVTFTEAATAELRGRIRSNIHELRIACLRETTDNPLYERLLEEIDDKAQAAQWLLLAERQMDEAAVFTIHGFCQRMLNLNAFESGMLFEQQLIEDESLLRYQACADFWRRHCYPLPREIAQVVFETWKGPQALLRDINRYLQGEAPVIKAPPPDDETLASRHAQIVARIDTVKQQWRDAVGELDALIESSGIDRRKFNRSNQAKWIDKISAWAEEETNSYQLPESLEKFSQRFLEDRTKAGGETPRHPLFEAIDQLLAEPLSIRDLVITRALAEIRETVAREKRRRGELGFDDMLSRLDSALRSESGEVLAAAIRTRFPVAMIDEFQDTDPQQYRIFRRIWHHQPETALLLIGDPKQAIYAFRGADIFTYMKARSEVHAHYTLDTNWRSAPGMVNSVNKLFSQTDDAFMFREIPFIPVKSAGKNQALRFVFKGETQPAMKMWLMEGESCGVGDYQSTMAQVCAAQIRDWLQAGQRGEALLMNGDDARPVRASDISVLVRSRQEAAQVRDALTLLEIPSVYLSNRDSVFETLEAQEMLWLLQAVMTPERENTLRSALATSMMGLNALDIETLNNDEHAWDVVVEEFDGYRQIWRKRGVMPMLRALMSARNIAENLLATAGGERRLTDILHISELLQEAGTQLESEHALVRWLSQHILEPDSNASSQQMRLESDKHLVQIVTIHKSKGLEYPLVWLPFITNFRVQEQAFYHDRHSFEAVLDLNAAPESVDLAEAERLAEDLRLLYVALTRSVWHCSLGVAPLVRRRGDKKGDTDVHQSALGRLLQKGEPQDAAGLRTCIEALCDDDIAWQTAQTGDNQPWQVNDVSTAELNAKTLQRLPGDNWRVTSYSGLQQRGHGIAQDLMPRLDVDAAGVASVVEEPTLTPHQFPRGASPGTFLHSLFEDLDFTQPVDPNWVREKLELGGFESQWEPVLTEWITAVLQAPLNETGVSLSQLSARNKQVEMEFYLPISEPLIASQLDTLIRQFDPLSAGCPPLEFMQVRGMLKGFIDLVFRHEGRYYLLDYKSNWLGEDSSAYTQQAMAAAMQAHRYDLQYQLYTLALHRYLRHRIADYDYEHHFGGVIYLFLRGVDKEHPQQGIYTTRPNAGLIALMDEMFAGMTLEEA

The term IC50 denotes the concentration that inhibits the measured activity by half. Usually CC50 stands for the concentration that lowers cell viability or growth by half. In general, AC50 refers to the midpoint of the concentration-response curve, whichever way the signal moves. Turning to `O=C(Nc1nc(-c2cccs2)cs1)c1ccc([N+](=O)[O-])o1`, the results for the IC50 in assay [1], in assay [3] and in assay [7] were 0.61 µM (active), > 118 µM (inactive) and > 118 µM (inactive), respectively. Also, the CC50 in [2] is 9.45 µM (active); in [4], 9.67 µM (active); in [8], > 20 µM (active). Besides, the AC50 in assay [5] was 1.52 µM (active); in assay [6], 2.32 µM (active).

Regarding `COc1ccc(Cl)cc1-n1c(N)c(C(=O)N2CCOCC2)sc1=S`, the IC50 in assay [9] was > 100 µM (inactive).

For orientation: EC50 means the concentration needed to bring the measured effect to its halfway point. On to `Cc1ccc2c(C)c3ccc4ccccc4c3c[n+]2c1.[O-][Cl+3]([O-])([O-])[O-]`, for which, in assay [10], the EC50 is 14.2 µM (active). For the same molecule, in assay [11], the CC50 is 78.8 µM (active). For the same molecule, the results for the AC50 in assay [12] and in assay [13] were 1.34 µM (active) and 1.06 µM (active), respectively. Further, the IC50 in [14] was 48 µM (active).
